According to paper PMC11079024, “Identification of a family of species-selective complex I inhibitors as potential anthelmintics” (Nature Communications, 2024):
Several values for one entry are separate records, joined by “and”; a condition that tells them apart may be missing. Identical values can stand only once. Like-named read-outs stand apart in the source and are kept apart here.

Columns and labels:
[1] = biological target: C. elegans (N2) complex I (NADH:ubiquinone oxidoreductase) (Caenorhabditis elegans, UniProt P24887+Q93873+Q94360); experiment: biochemical; format: biochemical; conditions: for remaining activity at 0.125 µM / remaining activity at 0.313 µM / remaining activity at 0.625 µM / remaining activity at 1.5 µM / remaining activity at 3 µM / remaining activity at 15 µM / remaining activity at 37.5 µM / remaining activity at 75 µM: wild-type C. elegans mitochondria, read-out: percent (%) in vitro complex I activity relative to solvent control; for Percent in vitro activity, Complex I (single replicate Rep1-Rep4): 100 µM; for activity at 0.0001 µM / activity at 0.0005 µM / Complex I activity, dose-response data / activity at 0.001 µM / activity at 0.0025 µM / activity at 0.005 µM / activity at 0.013 µM / activity at 0.025 µM / activity at 0.063 µM / activity at 0.125 µM / activity at 0.313 µM / activity at 0.625 µM / activity at 1.5 µM / activity at 3 µM / activity at 15 µM / activity at 37.5 µM / activity at 75 µM: C. elegans; for activity at 0.0001 µM / activity at 0.0005 µM / activity at 0.001 µM / activity at 0.0025 µM / activity at 0.005 µM / activity at 0.013 µM / activity at 0.025 µM / activity at 0.063 µM / activity at 0.125 µM / activity at 0.313 µM / activity at 0.625 µM / activity at 1.5 µM / activity at 3 µM / activity at 15 µM / activity at 37.5 µM / activity at 75 µM: read-out: Complex I activity, dose-response data; for IC50: wild-type (N2) mitochondria, read-out: C. elegans Complex I IC50
Sequence of C. elegans (N2) complex I (NADH:ubiquinone oxidoreductase) (Q94360 17-199): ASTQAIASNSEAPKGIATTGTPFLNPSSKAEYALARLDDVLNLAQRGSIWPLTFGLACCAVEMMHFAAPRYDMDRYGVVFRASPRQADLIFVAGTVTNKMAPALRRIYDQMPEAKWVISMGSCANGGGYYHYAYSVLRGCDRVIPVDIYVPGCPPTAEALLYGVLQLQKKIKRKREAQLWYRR
Sequence of C. elegans (N2) complex I (NADH:ubiquinone oxidoreductase) (P24887 whole entry): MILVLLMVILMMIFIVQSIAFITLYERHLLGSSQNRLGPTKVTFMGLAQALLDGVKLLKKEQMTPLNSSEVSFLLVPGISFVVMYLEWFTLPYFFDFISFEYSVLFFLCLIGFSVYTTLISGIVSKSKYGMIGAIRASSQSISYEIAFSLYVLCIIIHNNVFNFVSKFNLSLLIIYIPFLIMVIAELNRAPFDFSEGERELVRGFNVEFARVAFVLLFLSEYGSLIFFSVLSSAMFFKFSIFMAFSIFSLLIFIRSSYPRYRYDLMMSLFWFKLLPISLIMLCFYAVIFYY
Sequence of C. elegans (N2) complex I (NADH:ubiquinone oxidoreductase) (Q93873 31-482): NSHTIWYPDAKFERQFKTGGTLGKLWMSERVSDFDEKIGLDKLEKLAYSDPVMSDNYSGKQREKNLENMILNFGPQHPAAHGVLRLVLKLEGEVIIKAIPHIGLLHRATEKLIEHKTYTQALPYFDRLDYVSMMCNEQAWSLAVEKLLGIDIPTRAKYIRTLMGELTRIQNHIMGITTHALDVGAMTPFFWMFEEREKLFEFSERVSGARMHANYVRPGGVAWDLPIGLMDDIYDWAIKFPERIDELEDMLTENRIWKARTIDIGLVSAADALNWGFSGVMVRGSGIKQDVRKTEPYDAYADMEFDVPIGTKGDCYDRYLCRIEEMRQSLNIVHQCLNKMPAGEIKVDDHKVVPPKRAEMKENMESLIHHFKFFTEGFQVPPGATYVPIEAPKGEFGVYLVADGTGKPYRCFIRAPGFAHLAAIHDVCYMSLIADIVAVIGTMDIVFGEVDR
In short: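 Complex I rate: initial linear slope of A600 over 15 min, expressed as percent of solvent control. Triple freeze-thawed mitochondria (0.2 mg/mL) in KPi pH 7.5, BSA 3 mg/mL, NADH 80 μM, decylubiquinone 60 μM, DCIP 160 μM, antimycin A, KCN.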

[2] = in vitro; conditions: human, HEK293 Cell Viability Assay LC50, 2 days exposure
[3] = 100 µM compound, relative to solvent control, mean (SEM), read-out: % Activity Complex I
[4] = 100 μM of NPD compound, C. elegans mitochondria, individual biological replicates
[5] = 100 μM of NPD compound, C. elegans mitochondria, individual biological replicates, read-out: Percent in vitro activity, Complex I (single replicate Rep1-Rep4)
[6] = 100 μM of NPD compound, C. elegans mitochondria, mean of four biological replicates, read-out: Percent in vitro activity, Complex I (Mean)
[7] = dose 0.0001 µM, Mean of replicates
[8] = dose 0.0001 µM, individual replicates (Rep)
[9] = dose 0.0005 µM, Mean of replicates
[10] = dose 0.0005 µM, individual replicates (Rep)
[11] = dose 0.001 µM, Mean of replicates
[12] = dose 0.001 µM, individual replicates (Rep)
[13] = dose 0.0025 µM, Mean of replicates
[14] = dose 0.0025 µM, individual replicates (Rep)
[15] = dose 0.005 µM, Mean of replicates
[16] = dose 0.005 µM, individual replicates (Rep)
[17] = dose 0.013 µM, Mean of replicates
[18] = dose 0.013 µM, individual replicates (Rep)
[19] = dose 0.025 µM, Mean of replicates
[20] = dose 0.025 µM, individual replicates (Rep)
[21] = dose 0.063 µM, Mean of replicates
[22] = dose 0.063 µM, individual replicates (Rep)
[23] = dose 0.125 µM, Mean of replicates
[24] = dose 0.125 µM, individual replicates (Rep)
[25] = dose 0.313 µM, Mean of replicates
[26] = dose 0.313 µM, individual replicates (Rep)
[27] = dose 0.625 µM, Mean of replicates
[28] = dose 0.625 µM, individual replicates (Rep)
[29] = dose 1.5 µM, Mean of replicates
[30] = dose 1.5 µM, individual replicates (Rep)
[31] = dose 3 µM, individual replicates (Rep)
[32] = dose 15 µM, individual replicates (Rep)
[33] = dose 37.5 µM, Mean of replicates
[34] = dose 37.5 µM, individual replicates (Rep)
[35] = dose 75 µM, individual replicates (Rep)

## COc1cc2c(cc1OC)C(c1ccc(-c3ccc(Cl)c(Cl)c3)o1)=NCC2 [NPD3577]
[1]; mean of replicates
  remaining activity at 0.125 µM: 96.8%
  remaining activity at 0.313 µM: 92.4%
  remaining activity at 0.625 µM: 100%
  remaining activity at 1.5 µM: 94.3%
  remaining activity at 3 µM: 92.6%
  remaining activity at 15 µM: 62.2%
  remaining activity at 37.5 µM: 42.6%
  remaining activity at 75 µM: 40.7%
[1]; single replicate
  remaining activity at 0.125 µM: 96.7%
  remaining activity at 0.313 µM: 92.5%
  remaining activity at 0.625 µM: 100%
  remaining activity at 1.5 µM: 96.2%
  remaining activity at 3 µM: 93.9%
  remaining activity at 15 µM: 62.5%
  remaining activity at 37.5 µM: 37.8%
  remaining activity at 75 µM: 36.7%
[1]; [3]
  activity at 100 µM: 36.8%
[1]; [4]
  Percent in vitro activity, Complex I (single replicate Rep1-Rep4): 43.782% and 34.898% and 43.141%
[1]; [5]
  activity at 100 µM: 25.5%
[1]; [6]
  activity at 100 µM: 36.8%
[1]; [7]
  activity at 0.0001 µM: 100%
[1]; [8]
  activity at 0.0001 µM: 100%
[1]; [9]
  activity at 0.0005 µM: 101%
[1]; [10]
  Complex I activity, dose-response data: 102.944 and 101.488 and 99.964
  activity at 0.0005 µM: 99.8%
[1]; [11]
  activity at 0.001 µM: 107%
[1]; [12]
  Complex I activity, dose-response data: 100.123 and 101.601 and 102.139 and 122.392
[1]; [13]
  activity at 0.0025 µM: 108%
[1]; [14]
  Complex I activity, dose-response data: 107.455 and 110.182 and 112.130
  activity at 0.0025 µM: 102%
[1]; [15]
  activity at 0.005 µM: 104%
[1]; [16]
  Complex I activity, dose-response data: 104.715 and 108.539 and 101.437
  activity at 0.005 µM: 100%
[1]; [17]
  activity at 0.013 µM: 97.9%
[1]; [18]
  Complex I activity, dose-response data: 98.157 and 103.636 and 111.482 and 78.345
[1]; [19]
  activity at 0.025 µM: 98.1%
[1]; [20]
  Complex I activity, dose-response data: 97.798 and 102.639 and 113.034 and 78.823
[1]; [21]
  activity at 0.063 µM: 101%
[1]; [22]
  Complex I activity, dose-response data: 101.240 and 102.785 and 102.967
  activity at 0.063 µM: 97%
[1]; [23]
  activity at 0.125 µM: 96.8%
[1]; [24]
  Complex I activity, dose-response data: 97.708 and 99.291 and 93.354
  activity at 0.125 µM: 96.7%
[1]; [25]
  activity at 0.313 µM: 92.4%
[1]; [26]
  Complex I activity, dose-response data: 97.105 and 93.945 and 86.205
  activity at 0.313 µM: 92.5%
[1]; [27]
  activity at 0.625 µM: 100%
[1]; [28]
  activity at 0.625 µM: 100%
[1]; [29]
  activity at 1.5 µM: 94.3%
[1]; [30]
  Complex I activity, dose-response data: 94.111 and 90.424 and 96.414
  activity at 1.5 µM: 96.2%
[1]; dose 3 µM, Mean of replicates
  activity at 3 µM: 92.6%
[1]; [31]
  Complex I activity, dose-response data: 91.612 and 93.694 and 91.331
  activity at 3 µM: 93.9%
[1]; dose 15 µM, Mean of replicates
  activity at 15 µM: 62.2%
[1]; [32]
  Complex I activity, dose-response data: 63.065 and 59.782 and 63.349
  activity at 15 µM: 62.5%
[1]; [33]
  activity at 37.5 µM: 42.6%
[1]; [34]
  Complex I activity, dose-response data: 41.693 and 41.389 and 49.686
  activity at 37.5 µM: 37.8%
[1]; dose 75 µM, Mean of replicates
  activity at 75 µM: 40.7%
[1]; [35]
  Complex I activity, dose-response data: 47.397 and 37.818 and 40.786
  activity at 75 µM: 36.7%
[1]
  IC50: 12.1 µM
[2]
  CC50 at 2 days: 21.4 µM

## COc1cc2c(cc1OC)C(/C=C/c1ccc(N(C)C)cc1)=NCC2 [NPD6303]
[1]; mean of replicates
  remaining activity at 0.125 µM: 93.1%
  remaining activity at 0.313 µM: 88%
  remaining activity at 0.625 µM: 108%
  remaining activity at 1.5 µM: 100%
  remaining activity at 3 µM: 89.5%
  remaining activity at 15 µM: 47.6%
  remaining activity at 37.5 µM: 15%
  remaining activity at 75 µM: 9.53%
[1]; single replicate
  remaining activity at 0.125 µM: 103%
  remaining activity at 0.313 µM: 83.6%
  remaining activity at 0.625 µM: 106%
  remaining activity at 1.5 µM: 100%
  remaining activity at 3 µM: 82.5%
[1]; [3]
  activity at 100 µM: 12.7%
[1]; [4]
  Percent in vitro activity, Complex I (single replicate Rep1-Rep4): 10.460% and 12.057% and 12.075%
[1]; [5]
  activity at 100 µM: 16.4%
[1]; [6]
  activity at 100 µM: 12.7%
[1]; [7]
  activity at 0.0001 µM: 98.7%
[1]; [8]
  Complex I activity, dose-response data: 97.469 and 99.188
  activity at 0.0001 µM: 101%
[1]; [9]
  activity at 0.0005 µM: 100%
[1]; [10]
  activity at 0.0005 µM: 100%
[1]; [11]
  activity at 0.001 µM: 98.7%
[1]; [12]
  Complex I activity, dose-response data: 94.995 and 103.570
  activity at 0.001 µM: 101%
[1]; [13]
  activity at 0.0025 µM: 103%
[1]; [14]
  Complex I activity, dose-response data: 97.419 and 110.831
  activity at 0.0025 µM: 106%
[1]; [15]
  activity at 0.005 µM: 99.6%
[1]; [16]
  Complex I activity, dose-response data: 94.468 and 104.617
  activity at 0.005 µM: 105%
[1]; [17]
  activity at 0.013 µM: 97.2%
[1]; [18]
  Complex I activity, dose-response data: 91.183 and 107.524
  activity at 0.013 µM: 98.9%
[1]; [19]
  activity at 0.025 µM: 97.1%
[1]; [20]
  Complex I activity, dose-response data: 90.226 and 107.714
  activity at 0.025 µM: 100%
[1]; [21]
  activity at 0.063 µM: 95.9%
[1]; [22]
  Complex I activity, dose-response data: 89.273 and 101.913
  activity at 0.063 µM: 103%
[1]; [23]
  activity at 0.125 µM: 93.1%
[1]; [24]
  Complex I activity, dose-response data: 87.998 and 93.858
  activity at 0.125 µM: 103%
[1]; [25]
  activity at 0.313 µM: 88%
[1]; [26]
  Complex I activity, dose-response data: 86.077 and 96.329
  activity at 0.313 µM: 83.6%
[1]; [27]
  activity at 0.625 µM: 108%
[1]; [28]
  Complex I activity, dose-response data: 108.371 and 107.823
  activity at 0.625 µM: 106%
[1]; [29]
  activity at 1.5 µM: 100%
[1]; [30]
  activity at 1.5 µM: 100%
[1]; dose 3 µM, Mean of replicates
  activity at 3 µM: 89.5%
[1]; [31]
  Complex I activity, dose-response data: 88.910 and 97.542
  activity at 3 µM: 82.5%
[1]; dose 15 µM, Mean of replicates
  activity at 15 µM: 47.6%
[1]; [32]
  Complex I activity, dose-response data: 33.770 and 49.973 and 56.558
[1]; [33]
  activity at 37.5 µM: 15%
[1]; [34]
  Complex I activity, dose-response data: 10.655 and 12.339 and 24.559
[1]; dose 75 µM, Mean of replicates
  activity at 75 µM: 9.53%
[1]; [35]
  Complex I activity, dose-response data: 11.807 and 4.396 and 17.534
[1]
  IC50: 11.9 µM and 11 µM
[2]
  CC50 at 2 days: 33.4 µM
